Reference: ChEMBL document CHEMBL1141681, “Bradykinin B1 receptor antagonists: an alpha-hydroxy amide with an improved metabolism profile” (Bioorg Med Chem Lett, 2008)

Tests used:
B1 bradykinin receptor = target: T1, B1 bradykinin receptor (Homo sapiens, UniProt P46663); test: Displacement of [3H]des-arg10leu9kallidin from human bradykinin B1 receptor expressed in CHO cells by Wallac beta-plate scintillation counting; assay type: cell-based
T1 sequence (P46663 whole entry): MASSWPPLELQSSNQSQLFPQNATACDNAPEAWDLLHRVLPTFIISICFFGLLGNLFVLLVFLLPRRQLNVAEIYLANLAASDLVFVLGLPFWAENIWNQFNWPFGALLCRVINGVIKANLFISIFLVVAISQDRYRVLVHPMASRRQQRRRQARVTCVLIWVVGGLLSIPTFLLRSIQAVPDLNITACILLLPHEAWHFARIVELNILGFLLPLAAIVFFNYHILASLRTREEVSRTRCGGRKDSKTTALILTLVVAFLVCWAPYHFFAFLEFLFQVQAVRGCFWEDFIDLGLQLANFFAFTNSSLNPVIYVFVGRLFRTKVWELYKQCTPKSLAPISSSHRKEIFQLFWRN

[1] = Ratio of permeability from basolateral to apical side to apical to basolateral side in pig L-MDR1 cells overexpressing human MDR1 at 5 uM after 3 hrs by LC/MS/MS analysis; assay type: ADME, cell-based, Sus scrofa; details: l-mdr1, 3 h
MDR1 (human) = test: (§1) Apparent permeability across pig L-MDR1 cells overexpressing human MDR1 at 5 uM after 3 hrs by LC/MS/MS analysis; assay type: ADME, cell-based, Sus scrofa; details: LLC-PK1
[2] = (§2) Half life in mongrel dog at 3 mg/kg, po and 1 mg/kg, iv; assay type: ADME, organism-based, Canis lupus familiaris; details: mongrel, in vivo
[3] = Clearance in mongrel dog at 3 mg/kg, po and 1 mg/kg, iv; assay type: ADME, organism-based, Canis lupus familiaris; details: in vivo
[4] = Oral bioavailability in Sprague-Dawley rat at 10 mg/kg; assay type: ADME, organism-based; details: in vivo
[5] = Half life in Sprague-Dawley rat at 10 mg/kg, po and 2 mg/kg, iv; assay type: ADME, organism-based; details: in vivo
[6] = Clearance in Sprague-Dawley rat at 10 mg/kg, po and 2 mg/kg, iv; assay type: ADME, organism-based; details: in vivo
Rattus norvegicus = test: Ex vivo displacement of [35S]N-{2-[4-(4,5-dihydro-1H-imidazol-2-yl)phenyl]ethyl}-2-[(2R)-1-(2-naphthylsulfonyl)-3-oxo-1,2,3,4-tetrahydroquinoxalin-2-yl]acetamide from human bradykinin B1 receptor expressed in iv dosed Sprague-Dawley rat brain by liquid scintillation counting; assay type: functional, organism-based
[7] = Oral bioavailability in mongrel dog at 3 mg/kg; assay type: ADME, organism-based, Canis lupus familiaris; details: in vivo
[8] = Ratio of drug level in brain to plasma of african green monkey at 2 mg/kg, iv after 30 mins by LC/MS/MS analysis; assay type: ADME, organism-based; parameters: dose 2 mg/kg, route intravenous; details: chlorocebus aethiops, brain and plasma
[9] = as §1; assay type: ADME, cell-based, Sus scrofa; details: l-mdr1, 3 h, 5 µM, 3 h
Canis familiaris = test: as §2; assay type: ADME, organism-based, Canis lupus familiaris; details: in vivo

SMILES	Ki (B1 bradykinin receptor)	Ratio [1]	Papp at 3 h, 5 µM (MDR1 (human))	half-life [2]	clearance [3]	bioavailability [4]	half-life [5]	clearance [6]	Ki (Rattus norvegicus)	bioavailability [7]	Kp at 0.5 h [8]	Ratio ([1]; 3 h)	Papp [9]	t1/2 (Canis familiaris)
C[C@@H](NC(=O)C1(O)CCSC1)c1ncc(-c2cc(Cl)cc(F)c2-c2nnn(C)n2)cc1F (stereo partly specified)	0.39 nM	2.9	31 ×10⁻⁶ cm/s	5.4 h	3.2 mL/min/kg	–	–	–	–	–	–	–	–	–
C[C@@H](NC(=O)C1(O)CCCC1)c1ncc(-c2cc(Cl)cc(F)c2-c2nnn(C)n2)cc1F	0.48 nM	2.1	29 ×10⁻⁶ cm/s	4.7 h	0.6 mL/min/kg	26%	5.5 h	10 mL/min/kg	214 nM	–	–	–	–	–
C[C@@H](NC(=O)C1(O)CCC(F)(F)CC1)c1ncc(-c2cc(Cl)cc(F)c2-c2nnn(C)n2)cc1F	0.41 nM	2	31 ×10⁻⁶ cm/s	20.3 h	1 mL/min/kg	62%	5.6 h	2.2 mL/min/kg	140 nM	91%	0.63	–	–	–
C[C@@H](NC(=O)C1(O)CCC(=O)C1)c1ncc(-c2cc(Cl)cc(F)c2-c2nnn(C)n2)cc1F (stereo partly specified)	0.67 nM	16	31 ×10⁻⁶ cm/s	9.8 h	0.3 mL/min/kg	–	–	–	–	–	–	–	–	–
CC(NC(=O)C1(O)CCC(F)(F)C1)c1ncc(-c2cc(Cl)cc(F)c2-c2nnn(C)n2)cc1F (stereo in doubt; 11g)	0.67 nM	–	–	–	–	96%	4.1 h	5.2 mL/min/kg	120 nM	85%	0.55	1.9	32 ×10⁻⁶ cm/s	19 h
Cc1nc(-c2c(F)cc(Cl)cc2-c2cnc([C@@H](C)NC(=O)[C@@](C)(O)C(F)(F)F)c(F)c2)no1	–	–	27 ×10⁻⁶ cm/s	–	0.5 mL/min/kg	–	–	–	–	–	–	–	–	–
CC(NC(=O)C1(O)CCC(F)(F)C1)c1ncc(-c2cc(Cl)cc(F)c2-c2nnn(C)n2)cc1F (stereo in doubt; 11f)	1 nM	–	29 ×10⁻⁶ cm/s	–	0.3 mL/min/kg	–	–	–	–	–	–	2.6	–	3 h
C[C@@H](NC(=O)C1(O)CCS(=O)(=O)C1)c1ncc(-c2cc(Cl)cc(F)c2-c2nnn(C)n2)cc1F (stereo partly specified)	0.69 nM	29	22 ×10⁻⁶ cm/s	9.9 h	0.5 mL/min/kg	–	–	–	–	–	–	–	–	–
C[C@@H](NC(=O)C1(O)CC[S+]([O-])C1)c1ncc(-c2cc(Cl)cc(F)c2-c2nnn(C)n2)cc1F (stereo partly specified)	1.6 nM	14.3	24 ×10⁻⁶ cm/s	3.1 h	2.3 mL/min/kg	–	–	–	–	–	–	–	–	–
C[C@@H](NC(=O)[C@@](C)(O)C(F)(F)F)c1ncc(-c2cc(Cl)cc(F)c2-c2noc(CO)n2)cc1F	0.8 nM	–	–	–	–	–	–	–	–	–	–	–	–	–
C[C@@H](NC(=O)C1(O)CCOCC1)c1ncc(-c2cc(Cl)cc(F)c2-c2nnn(C)n2)cc1F	0.96 nM	8.2	24 ×10⁻⁶ cm/s	–	–	–	–	–	–	–	–	–	–	–
